Test results taken from a melting point compilation (Tetko et al.; mined from patent text by program, amines drawn as free bases though some values may be those of a salt).

Row | Structure (SMILES) | melting point [°C]
1 | CCC(=CC(CNC(=O)c1ccc(NS(C)(=O)=O)nc1)=NO)C(C)[N+](=O)[O-] (configuration not stated) | 131 to 136
2 | O=C(NCCCO)c1cccc(-c2cccc(Oc3cc(Cl)cc(Cl)c3)n2)c1 | 101 to 102
3 | Cc1oc(-c2ccc(C(F)(F)F)cc2)nc1-c1ccc2c(Br)c(OC(Cc3ccccc3)C(=O)O)ccc2c1 (configuration not stated) | 195 to 197
4 | CCOC(=O)c1cccc(Cc2c(C(=O)OCC)n(Cc3cc4c(cc3CC)OCO4)c3ccc(OCOC)cc3c2=O)c1 | 89 to 96
5 | c1ccc(COc2cc(OCc3ccccc3)cc(OCc3ccccc3)c2)cc1 | 91.5 to 91.9
6 | CC(C)c1c(O)ccc2cnc(Nc3ccccc3)nc12 | 103 to 104
7 | O=C(Nc1ccccn1)Nc1nc(-c2ccccc2)cs1 | 247 to 249
8 | C#C[C@H]1CC[C@H](C(=O)O)CC1 | 161 to 162
9 | COc1c(C(=O)O)sc(C)c1C | 142 to 143
10 | Cc1oc(-c2ccc(C(F)(F)F)cc2)nc1-c1ccc(-c2cc(Br)c(OCC(=O)O)c(Br)c2)cc1 | 165 to 166
11 | CC(=O)N[C@@H](C)CO[C@H]1CC[C@H](n2cc3ccc(OCCC4CC4)cc3n2)CC1 | 98 to 99
12 | c1ccc(Oc2cccc3c2CCN(Cc2c[nH]c4ncccc24)C3)cc1 | 179 to 180
13 | CCOC(=O)c1cc(=O)c2c(OCC(O)COc3cccc(C(F)(F)F)c3)cccc2o1 (configuration not stated) | 70 to 75
14 | CCOC(=O)c1ncn2c1CN=C(c1cccs1)c1cc(C#C[Si](C)(C)C)ccc1-2 | 124 to 127
15 | Cc1cccc(C)c1NCC(=O)N1CCCO1 | 82 to 83
16 | CC#CC(C)(C)NC(=O)C(CC)Oc1ccc2ncc(Br)cc2c1 (configuration not stated) | 109 to 112
17 | COCCCc1ccc2oc(-c3cc4cccn4cn3)cc(=NO)c2c1 | 172 to 173
18 | CCN1C(=O)C(=C(C)O)SC1=S | 93
19 | CC(C)c1cccc(C(C)C)c1NC(=O)N(Cc1ccccc1)[C@H]1CC[C@@H](c2ccccc2)CC1 | 148 to 149
20 | CCOc1ccc(C(=O)NCCN2CCC(Oc3ccc(Cl)c(Cl)c3)CC2)cc1 | 118 to 120
21 | O=S(O)c1ccc2c(c1)CCCC2 | 82 to 85
22 | CCCN1CCc2cc(NC(=O)C(=O)N[C@H]3CCOC3O)ccc21 (some centres not stated) | 120 to 122
23 | C[C@@H](c1ncncc1F)[C@@](Cn1cncn1)(OP(=O)(OCc1c(F)cccc1Cl)OCc1c(F)cccc1Cl)c1ccc(F)cc1F | 140 to 141
24 | O=C(CCC(=O)N1CCC(N2Cc3ccccc3NC2=O)CC1)c1ccc(Cl)c(Cl)c1 | 224 to 226
25 | CCOc1ccccc1OCC(O)CCN1C(=O)c2ccccc2C1=O (configuration not stated) | 93 to 95

Row | Structure (SMILES) | melting point [°C]
26 | Cc1nc2c(N)nc3ccccc3c2n1CC1(O)CCCCC1 | > 250
27 | O=C(Nc1ccc(-c2cnc(-c3ccc(NC(=O)c4cccnc4)cc3)[nH]2)cc1)c1cccnc1 | 317 to 319
28 | CC(C)Nc1cccnc1N1CCN(C(=O)c2ccc(C(=O)NC(CO)CO)cn2)CC1 | 90 to 93
29 | O=C1CC(O)CC(C=Cc2c3c(nn2-c2ccc(F)cc2)C(Cc2ccccc2)CCC3)O1 (racemic) | 185 to 187
30 | CCOC(=O)N1CCN(C(=O)c2sc(NC(C)=O)nc2CCc2ccc(NC(=N)N)cc2)CC1 | 180 to 182
31 | CCOC(=O)CCCCCCCn1c(Cc2ccccc2)nc(-c2ccccc2)c1-c1ccccc1 | 82 to 83
32 | COc1cnc(CSc2nc3cc4c(cc3[nH]2)OC(F)(F)O4)c(C)c1OC | 160 to 161
33 | COCC1CN(c2ccc(C3CCCCC3)c(O)c2)C(=O)O1 (racemic) | 207 to 208
34 | CCOC(=O)NNc1ccc(-c2ccc(F)cc2)nn1 | 173 to 174
35 | CC(C)c1cc(C(=O)Nc2ccc(OCC(=O)O)cc2)oc1C(C)C | 83 to 85
36 | O=C(CNC(=O)c1ccc(C(=O)C=C(c2cc(Cl)cc(C(F)(F)F)c2)C(F)(F)F)c2ccccc12)NCC(F)(F)F | 174 to 177
37 | CCC(O)(c1ccc(OCCCN2CCCCC2)cc1)c1cccc(C(F)(F)F)c1 (configuration not stated) | 124 to 125
38 | CCC[C@H]1CC[C@H](c2ccc(OCC)c(C#N)c2)CC1 | 32
39 | COc1ccc(-c2nc(CCn3ccnc3)nc3cc(OC)c(OC)cc23)cc1OC | 147 to 148
40 | CC(c1oc2ccccc2c(=O)c1-c1cccc(F)c1)n1nc(-c2csc(C=O)c2)c2c(N)ncnc21 (configuration not stated) | 192 to 195
41 | ClC(Cl)=CCOc1cc(Cl)c(OCCC2COC(c3ccc(Cl)cc3)O2)c(Cl)c1 (configuration not stated) | 84.1
42 | COC1(c2cccc(OCc3ccc4ccccc4c3)c2)CC(C)OC(C)C1 (configuration not stated) | 105 to 107
43 | COc1cc(COc2nn(Cc3ccccc3)cc2CC(=O)O)ccc1OCc1nc(-c2ccccc2)oc1C | 99 to 100
44 | CC(C)(C)c1ccc(CCC=O)cc1NC(=O)CC1c2ccccc2Oc2ccccc21 | 176 to 177
45 | CC(C)(C)c1ccc(-c2nc(COc3cccc4cc(NS(=O)(=O)C(F)(F)F)ccc34)co2)cc1 | 165 to 167
46 | CCOC(=O)c1cc2c(C(F)(F)F)ccc3c2n1CCN3C | 91 to 92
47 | COc1cc(C(=O)C2C(=O)N(C)C(=O)N(C)C2=O)ccc1Oc1nc2ccccc2s1 | 210 to 211
48 | COc1cc(/C=C/C=C/C(=O)NCCCN2CCC(c3c[nH]c4ccccc34)CC2)cc(OC)c1O | 176 to 179
49 | CCOC(=O)N1CCN=C1CC(c1ccccc1)c1ccccc1 | 78 to 80
50 | Clc1cc(CCc2ccccn2)c2oc(-c3cn[nH]c3)nc2c1 | 204 to 208

Row | Structure (SMILES) | melting point [°C]
51 | O=Cc1ccc(OCCCC(=O)O)c([N+](=O)[O-])c1 | 136 to 139
52 | CCc1cc(OCc2ccc(-c3ccccc3-c3nnn(C(c4ccccc4)(c4ccccc4)c4ccccc4)n3)cc2)c2c(n1)CCN(C(C)=O)C2 | 97 to 98
53 | CON(C(=O)c1cccnc1Cl)C1CCCCC1 | 96 to 98
54 | CC(C)NC(=O)C1=C(C(=O)Nc2cc(OC3CCCC3)c(Cl)cc2F)CCCC1 | 169 to 171
55 | CCOC(=O)CNC(=O)c1oc2cc(-c3ccc(Cn4c(C)nc5ccccc54)cc3)ccc2c1C | 184 to 186
56 | CC(=O)N(O)C(CS(=O)(=O)c1ccc(-c2cccc(CNC(=O)c3nc4ccccc4c(=O)[nH]3)c2)cc1)C(C)C (configuration not stated) | 167 to 169
57 | O=C1NC(=O)C(c2ccc(Br)o2)O1 (configuration not stated) | 126 to 129
58 | CC(Oc1cc(-n2nc3n(c2=O)CCCC3)c(Cl)cc1Cl)C(=O)O (configuration not stated) | 183 to 185
59 | Cc1ccc2c(NCc3ccc(NC(=O)C4CCN(Cc5ccccc5)CC4)cc3)nc(N3CCCC3)nc2c1 | 96
60 | CC1(c2ccc([N+](=O)[O-])cc2)C(=O)Nc2cc(Cl)cc(Cl)c2C1=O (configuration not stated) | 264 to 265
61 | O=C(O)Cc1ccc(-c2cn3ccsc3n2)cc1 | 248 to 249
62 | COC(=O)CCc1ccc(C(=C2CC(C)(C)CC(C)(C)C2)c2ccc(O)cc2)cc1 | 129 to 130
63 | CN1c2ccc(Cl)cc2C(c2ccccc2F)=Nc2cccnc21 | 136 to 138
64 | CC(C)(C)Cc1cc(C2(N)CC2)no1 | 39 to 47
65 | Cc1ncc2cc(-c3c(Cl)cccc3Cl)c(N)nc2n1 | 287 to 289
66 | CCc1nc2c(N)nc3ccccc3c2n1CCC1(O)CCOCC1 | 243 to 244
67 | Fc1cccc(CSc2nnc(-c3ncnc4[nH]ccc34)o2)c1 | 182 to 183
68 | OCCSc1nc(-c2ccccc2)c(-c2ccccc2)s1 | 77 to 79
69 | O=C1CN2CCOC2(c2ccccc2F)c2cc(Cl)ccc2N1 (configuration not stated) | 183 to 184
70 | CC(=O)NCCC1CCc2ccn3nc(-c4ccccc4)cc3c21 (configuration not stated) | 159 to 160
71 | Cc1nc(N=Nc2ccccc2)c(O)c(=O)[nH]1 | 243 to 245
72 | Cc1cccc(C)c1N1CN(C)CN(C)C1=S | 121 to 123
73 | CCOC(=O)Cn1ncc(CC)c1O | 77 to 78
74 | CCNC(c1ccccc1)(c1ccccc1)c1ccccc1 | 75 to 77
75 | COc1cc2c(cc1OC)CN(CCCSc1ccc(NC(=O)c3cccc4c(=O)c5ccccc5[nH]c34)cc1)CC2 | 182

Row | Structure (SMILES) | melting point [°C]
76 | N#Cc1c(CCC(=O)O)oc2cc(O)ccc2c1=O | 300 to 301
77 | COc1ccc(NC(N)=O)c(C#N)c1OC | 198 to 200
78 | CC1CCN(c2ccnc(NC(=O)NCc3ccccn3)c2)C1=O (configuration not stated) | 190 to 191
79 | Cc1c(C)n(Cc2ccccc2)c(=O)[nH]c1=O | 187 to 189
80 | O=C1CCc2ccc(Oc3c(F)cc(C(F)(F)F)cc3Cl)cc21 | 75
81 | CC(C)COC(=O)[C@H](CC(=O)OCc1ccccc1)NC(=O)CCCCNC(=O)OC(C)(C)C | 64 to 66
82 | OCCNc1nc2ccc(Cl)cc2c2nc(-c3ccco3)nn12 | 214 to 217
83 | Nc1c(-c2cc(Cl)ccc2O)c2c(C(F)(F)F)c(Cl)ccc2[nH]c1=O | 139 to 140
84 | CCOC(=O)c1ccc(-c2ccsc2)nc1C(=O)OCC | 100 to 102
85 | COc1cc(Br)cc2cc(C(C)=O)oc12 | 107 to 109
86 | Cc1cn(C)c2c1C(=O)CC(c1ccccc1)C2 (configuration not stated) | 155 to 156
87 | CCOCc1nc2c(N)nc3ccccc3c2n1CCCc1cc(C)no1 | 163 to 164
88 | O=C(C(=O)c1ccc(Oc2ccc(Br)cc2)cc1)c1ccccc1 | 85 to 86
89 | CC(C)(C)c1nc(C[C@@H]2CC[C@](C)(NCC(=O)N3C[C@@H](F)C[C@H]3C#N)C2(C)C)no1 | 152 to 154
90 | COc1cc(Cc2cc3cc(Cl)ccc3n2S(=O)(=O)c2ccc(C(C)C)cc2)ccc1C(=O)O | 67
91 | COc1cccc(Oc2cccc(C#CC(C)N(O)C(N)=O)c2)n1 (configuration not stated) | 90 to 91
92 | CCCCCCCCCCCCCCCCCCNC(=O)NCCSc1ccc(O)cc1 | 121
93 | CC(=O)c1cc(-c2ccc(C)cc2)c(OCc2ccccc2)c(C(C)(C)C)c1 | 104
94 | COc1cc(Cc2n[nH]c3c2c(=O)n(-c2ccccc2)c2ncccc32)cc(OC)c1 | 258 to 259
95 | Sc1nccn1Cc1ccccc1Cl | 206 to 207
96 | Cc1cccc(C(C#N)N2CCOCC2)c1 (configuration not stated) | 59 to 60
97 | C=C1CCN(c2cn(-c3cccnc3)nc2Cl)C1=O | 117 to 118
